Experiment [1] is described as follows: Cross Resistance (antiviral activity) with V108I (Non nucleoside reverse transcriptase inhibitor) resistant HIV isolate from cytopathic cell killing assay. (Protection from cytopathic effect is a common read-out in antiviral testing.)
A short description of experiment [2]: Cross Resistance (antiviral activity) with 4xAZT/Y181C (Non nucleoside reverse transcriptase inhibitor) resistant HIV isolate from cytopathic cell killing assay.
The nature of experiment [3]: Cross Resistance (antiviral activity) with V179D (Non nucleoside reverse transcriptase inhibitor) resistant HIV isolate from cytopathic cell killing assay.
A short description of experiment [4]: Cross Resistance (antiviral activity) with Y181C (Non nucleoside reverse transcriptase inhibitor) resistant HIV isolate from cytopathic cell killing assay.
Experiment [5] can be described thus: Cross Resistance (antiviral activity) with Y188C (Non nucleoside reverse transcriptase inhibitor) resistant HIV isolate from cytopathic cell killing assay.
Experiment [6] is described as follows: Cross Resistance (antiviral activity) with A98G (Non nucleoside reverse transcriptase inhibitor) resistant HIV isolate from cytopathic cell killing assay.
The nature of experiment [7]: Cross Resistance (antiviral activity) with K101E (Non nucleoside reverse transcriptase inhibitor) resistant HIV isolate from cytopathic cell killing assay.
Experiment [8] is described as follows: Cross Resistance (antiviral activity) with K103N (Non nucleoside reverse transcriptase inhibitor) resistant HIV isolate from cytopathic cell killing assay.
A short description of experiment [9]: Cross Resistance (antiviral activity) with NL4-3(WT) NNRTI (Non nucleoside reverse transcriptase inhibitor) resistant HIV isolate from cytopathic cell killing assay.
The nature of experiment [10]: Cross Resistance (antiviral activity) with V106A (Non nucleoside reverse transcriptase inhibitor) resistant HIV isolate from cytopathic cell killing assay.
Experiment [11] in a line: Cross Resistance (antiviral activity) with L74V (nucleoside reverse transcriptase inhibitor) resistant HIV isolate from cytopathic cell killing assay.
A short description of experiment [12]: Cross Resistance (antiviral activity) with 4xAZT/L100I (Non nucleoside reverse transcriptase inhibitor) resistant HIV isolate from cytopathic cell killing assay.
Experiment [13] is described as follows: Cross Resistance (antiviral activity) with 4xAZT (nucleoside reverse transcriptase inhibitor) resistant HIV isolate from cytopathic cell killing assay.
Experiment [14] can be described thus: Cross Resistance (antiviral activity) with Y181C (Non nucleoside reverse transcriptase inhibitor) resistant HIV isolate from cytopathic cell killing assay. The source holds these as a separate data set.
The nature of experiment [15]: Cross Resistance (antiviral activity) with K101E (Non nucleoside reverse transcriptase inhibitor) resistant HIV isolate from cytopathic cell killing assay. The source holds these as a separate data set.
The nature of experiment [16]: Cross Resistance (antiviral activity) with L100I (Non nucleoside reverse transcriptase inhibitor) resistant HIV isolate from cytopathic cell killing assay.
Experiment [17] is described as follows: Cross Resistance (antiviral activity) with V108I (Non nucleoside reverse transcriptase inhibitor) resistant HIV isolate v.
Experiment [18] in a line: Cross Resistance (antiviral activity) with A98G (Non nucleoside reverse transcriptase inhibitor) resistant HIV isolate from cytopathic cell killing assay. The source holds these as a separate data set.
Experiment [19] is described as follows: Cross Resistance (antiviral activity)of the compound with 4xAZT/Y181C (Non nucleoside reverse transcriptase inhibitor) resistant HIV isolate from cytopathic cell killing assay.

Usually EC50 stands for the concentration that produces a half-maximal response. Consider `Fc1cccc(F)c1Cn1c(-c2c(F)cccc2F)nc2ccccc21`, for which the EC50 is 10.4 µM in [1]; > 20 µM in experiment [2]; 2.3 µM in experiment [3]; 15.2 µM in experiment [4]; 11.7 µM in [5]; 4.75 µM in experiment [6]. For the same compound, the EC50 in experiment [7] was > 20 µM; in experiment [8], 12.9 µM; in experiment [9], 1.85 µM; in experiment [10] it was > 20 µM; in experiment [11] it was 0.46 µM; in [12], 0.84 µM. Moreover, in experiment [13], a half-maximal response (EC50) required 0.27 µM.
For the compound `Cc1cccc2c1nc(-c1c(F)cccc1F)n2Cc1c(F)cccc1F`, the EC50 worked out at 3.5 µM in [2]; 6 µM in experiment [14]; 0.5 µM in experiment [3]; 16.7 µM in [15]; 2.3 µM in [5]; 1.4 µM in experiment [6]. Also, the concentration giving a half-maximal response (EC50) worked out at 8.1 µM in experiment [8]; 0.5 µM in experiment [9]; 20 µM in experiment [10]; 0.1 µM in [11]; 0.3 µM in experiment [16]; 0.2 µM in experiment [12]. Also, the figures for the EC50 in [13] and in experiment [17] were 0.1 µM and 2.8 µM, respectively.
In the case of `Fc1cccc(F)c1C1SCc2nc3ccccc3n21` (centres undefined) [3-(2,6-difluorophenyl)-4-thia-2,7-diazatricyclo[6.4.0.0^{2,6}]dodeca-1(12),6,8,10-tetraene], the EC50 in [1] was 9.7 µM; in experiment [2] it was 14.5 µM; in experiment [14], 16.3 µM; in experiment [18], 17.7 µM; in [3] it was 3.1 µM; in experiment [7], > 20 µM. Besides, the EC50 was > 20 µM in [8]; 1.7 µM in [9]; > 20 µM in experiment [10]; 0.7 µM in experiment [11]; 12.2 µM in experiment [16]; 1.7 µM in [12]. For the same compound, in experiment [13], a half-maximal effect (EC50) was put at 1.5 µM.
Regarding `CC1Cn2c(=O)[nH]c3cccc(c32)CN1` (stereo not drawn) [(S-(+))-8-Methyl-6,7,8,9-tetrahydro-2H-2,7,9a-triaza-benzo[cd]azulen-1-one], the EC50 in experiment [1] was 2.4 µM; in experiment [14] it was 4.2 µM; in [3] it was 6.2 µM; in experiment [5] it was > 17.4 µM; in experiment [6] it was 11 µM; in [7], 17.4 µM. Moreover, the EC50 is 17.4 µM in [8]; 0.3 µM in experiment [9]; 12.5 µM in [10]; 0.2 µM in [11]; 17.4 µM in experiment [16]; > 17.4 µM in experiment [12]. For the same compound, the 50% effective concentration (EC50) in [19] is 2 µM; in experiment [13], 0.3 µM.

(Values after BindingDB's records for doi:10.1021/jm970096g (National Cancer Institute-Frederick, 1998).)
